Assay results from PubChem BioAssay (NCI).
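These data come from cells grown in 96-well plates and exposed to compound for 48 hours at five concentrations. GI50: concentration for 50% inhibition of growth. TGI is the concentration that stops growth completely.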

test system: SK-MEL-28 melanoma; assay: NCI anticancer screen, dose series, 48 h

Compared with `CSC(C1c2ccccc2N(c2ccc(C)cc2)C2=NC(=O)N(C)C(=O)C21Cl)S(=O)(=O)c1ccc(C)cc1` (configuration not stated), `O/N=C/C1c2ccccc2-c2ccccc21` is 1.5-fold lower in TGI: 45.1 µM for the first, 29.2 µM for the second.

`O=C(O)C(CS)N=c1c2ccccc2n(O)c2ccccc12` (configuration not stated) and `COC(=O)CN1CCSC1=NC#N` cannot be ordered by TGI: greater than 100 µM for the first, greater than 100 µM for the second.

Going from `CC(=O)CNC(=O)OC(C)(C)C` to `CCOC(=O)[C]1([Bi]([CH3])[CH3])N=NC(C(=O)OC)=C1C(=O)OC` (configuration not stated), the TGI falls from greater than 100 µM to 30.4 µM.

With `CCOC(=O)[C]1([Bi]([CH3])[CH3])N=NC(C(=O)OC)=C1C(=O)OC` (configuration not stated) the GI50 was 16.2 µM.

test system: SK-MEL-5 melanoma; assay: NCI anticancer screen, dose series, 48 h

`O=C1C2c3[nH]c4ccccc4c3C3CCCCCCC3C2C(=O)N1c1ccccc1` (configuration not stated) and `O=C(O)C(CS)N=c1c2ccccc2n(O)c2ccccc12` (configuration not stated) cannot be ordered by TGI: greater than 100 µM for the first, greater than 100 µM for the second.

`CSC(C1c2ccccc2N(c2ccc(C)cc2)C2=NC(=O)N(C)C(=O)C21Cl)S(=O)(=O)c1ccc(C)cc1` (configuration not stated) and `O/N=C/C1c2ccccc2-c2ccccc21` are within 1.5-fold of each other in TGI: 32.3 µM for the first, 25.4 µM for the second.

With `CC(=O)CNC(=O)OC(C)(C)C` the TGI was greater than 100 µM.

test system: SK-OV-3 ovarian; assay: NCI anticancer screen, dose series, 48 h

Going from `O=C1C2c3[nH]c4ccccc4c3C3CCCCCCC3C2C(=O)N1c1ccccc1` (configuration not stated) to `O=C(O)C(CS)N=c1c2ccccc2n(O)c2ccccc12` (configuration not stated), the TGI rises from 6.37 µM to greater than 100 µM.

First: CSC(C1c2ccccc2N(c2ccc(C)cc2)C2=NC(=O)N(C)C(=O)C21Cl)S(=O)(=O)c1ccc(C)cc1 (configuration not stated)
Second: O/N=C/C1c2ccccc2-c2ccccc21
The TGI of the first is 2.4-fold higher: 87.6 µM for the first, 36.2 µM for the second.

`CC(=O)CNC(=O)OC(C)(C)C` and `CCOC(=O)[C]1([Bi]([CH3])[CH3])N=NC(C(=O)OC)=C1C(=O)OC` (configuration not stated) cannot be ordered by TGI: greater than 100 µM for the first, greater than 100 µM for the second.

With `COC(=O)CN1CCSC1=NC#N` the TGI was greater than 100 µM.

`CCOC(=O)[C]1([Bi]([CH3])[CH3])N=NC(C(=O)OC)=C1C(=O)OC` (configuration not stated) showed a GI50 greater than 100 µM.

test system: SN12C renal; assay: NCI anticancer screen, dose series, 48 h

First: O=C1C2c3[nH]c4ccccc4c3C3CCCCCCC3C2C(=O)N1c1ccccc1 (configuration not stated)
Second: O=C(O)C(CS)N=c1c2ccccc2n(O)c2ccccc12 (configuration not stated)
The TGI of the first is lower: 22.2 µM for the first, greater than 100 µM for the second.

First: CSC(C1c2ccccc2N(c2ccc(C)cc2)C2=NC(=O)N(C)C(=O)C21Cl)S(=O)(=O)c1ccc(C)cc1 (configuration not stated)
Second: O/N=C/C1c2ccccc2-c2ccccc21
The TGI of the first is 1.8-fold higher: 58.5 µM for the first, 31.9 µM for the second.

First: CC(=O)CNC(=O)OC(C)(C)C
Second: CCOC(=O)[C]1([Bi]([CH3])[CH3])N=NC(C(=O)OC)=C1C(=O)OC (configuration not stated)
The TGI of the first is higher: greater than 100 µM for the first, 35.8 µM for the second.

Compound `CCOC(=O)[C]1([Bi]([CH3])[CH3])N=NC(C(=O)OC)=C1C(=O)OC` (configuration not stated) has a GI50 of 19.2 µM.

test system: SNB-19 CNS; assay: NCI anticancer screen, dose series, 48 h

First: CSC(C1c2ccccc2N(c2ccc(C)cc2)C2=NC(=O)N(C)C(=O)C21Cl)S(=O)(=O)c1ccc(C)cc1 (configuration not stated)
Second: O/N=C/C1c2ccccc2-c2ccccc21
The TGI of the first is 2.2-fold higher: 85.2 µM for the first, 38.6 µM for the second.

`O=C(O)C(CS)N=c1c2ccccc2n(O)c2ccccc12` (configuration not stated) and `COC(=O)CN1CCSC1=NC#N` cannot be ordered by TGI: greater than 100 µM for the first, greater than 100 µM for the second.

First: CC(=O)CNC(=O)OC(C)(C)C
Second: CCOC(=O)[C]1([Bi]([CH3])[CH3])N=NC(C(=O)OC)=C1C(=O)OC (configuration not stated)
The TGI of the first is higher: greater than 100 µM for the first, 66 µM for the second.

For `CCOC(=O)[C]1([Bi]([CH3])[CH3])N=NC(C(=O)OC)=C1C(=O)OC` (configuration not stated), the GI50 was 26 µM.

test system: SNB-75 CNS; assay: NCI anticancer screen, dose series, 48 h

Going from `O=C1C2c3[nH]c4ccccc4c3C3CCCCCCC3C2C(=O)N1c1ccccc1` (configuration not stated) to `O=C(O)C(CS)N=c1c2ccccc2n(O)c2ccccc12` (configuration not stated), the TGI rises from 5.33 µM to greater than 100 µM.

First: CSC(C1c2ccccc2N(c2ccc(C)cc2)C2=NC(=O)N(C)C(=O)C21Cl)S(=O)(=O)c1ccc(C)cc1 (configuration not stated)
Second: CCOC(=O)[C]1([Bi]([CH3])[CH3])N=NC(C(=O)OC)=C1C(=O)OC (configuration not stated)
The TGI of the first is 2-fold higher: 60 µM for the first, 29.9 µM for the second.

Work on `CC(=O)CNC(=O)OC(C)(C)C` yielded a TGI greater than 100 µM.

With `CCOC(=O)[C]1([Bi]([CH3])[CH3])N=NC(C(=O)OC)=C1C(=O)OC` (configuration not stated) the GI50 was 15.6 µM.

test system: SNB-78 CNS; assay: NCI anticancer screen, dose series, 48 h

First: O=C1C2c3[nH]c4ccccc4c3C3CCCCCCC3C2C(=O)N1c1ccccc1 (configuration not stated)
Second: O=C(O)C(CS)N=c1c2ccccc2n(O)c2ccccc12 (configuration not stated)
The TGI of the first is lower: 32.4 µM for the first, greater than 100 µM for the second.

Compared with `CSC(C1c2ccccc2N(c2ccc(C)cc2)C2=NC(=O)N(C)C(=O)C21Cl)S(=O)(=O)c1ccc(C)cc1` (configuration not stated), `CCOC(=O)[C]1([Bi]([CH3])[CH3])N=NC(C(=O)OC)=C1C(=O)OC` (configuration not stated) is higher in TGI: 80.1 µM for the first, greater than 100 µM for the second.

`CC(=O)CNC(=O)OC(C)(C)C` and `COC(=O)CN1CCSC1=NC#N` cannot be ordered by TGI: greater than 100 µM for the first, greater than 100 µM for the second.

With `CCOC(=O)[C]1([Bi]([CH3])[CH3])N=NC(C(=O)OC)=C1C(=O)OC` (configuration not stated) the GI50 was 27.4 µM.

test system: SR leukemia; assay: NCI anticancer screen, dose series, 48 h

`O=C1C2c3[nH]c4ccccc4c3C3CCCCCCC3C2C(=O)N1c1ccccc1` (configuration not stated) and `O/N=C/C1c2ccccc2-c2ccccc21` are within 1.5-fold of each other in TGI: 48.4 µM for the first, 51.7 µM for the second.

`CC(=O)CNC(=O)OC(C)(C)C` and `COC(=O)CN1CCSC1=NC#N` cannot be ordered by TGI: greater than 100 µM for the first, greater than 100 µM for the second.

test system: SW-620 colon; assay: NCI anticancer screen, dose series, 48 h

Compared with `O=C1C2c3[nH]c4ccccc4c3C3CCCCCCC3C2C(=O)N1c1ccccc1` (configuration not stated), `O=C(O)C(CS)N=c1c2ccccc2n(O)c2ccccc12` (configuration not stated) is higher in TGI: 29.8 µM for the first, greater than 100 µM for the second.

Going from `CSC(C1c2ccccc2N(c2ccc(C)cc2)C2=NC(=O)N(C)C(=O)C21Cl)S(=O)(=O)c1ccc(C)cc1` (configuration not stated) to `O/N=C/C1c2ccccc2-c2ccccc21`, the TGI falls from 85.9 µM to 40.7 µM (2.1-fold).

First: CC(=O)CNC(=O)OC(C)(C)C
Second: CCOC(=O)[C]1([Bi]([CH3])[CH3])N=NC(C(=O)OC)=C1C(=O)OC (configuration not stated)
The TGI of the first is higher: greater than 100 µM for the first, 32.8 µM for the second.

Compound `CCOC(=O)[C]1([Bi]([CH3])[CH3])N=NC(C(=O)OC)=C1C(=O)OC` (configuration not stated) has a GI50 of 16.6 µM.

test system: T-47D breast; assay: NCI anticancer screen, dose series, 48 h

`O/N=C/C1c2ccccc2-c2ccccc21` gave a TGI of 56.3 µM.

test system: TK-10 renal; assay: NCI anticancer screen, dose series, 48 h

Going from `O=C1C2c3[nH]c4ccccc4c3C3CCCCCCC3C2C(=O)N1c1ccccc1` (configuration not stated) to `O=C(O)C(CS)N=c1c2ccccc2n(O)c2ccccc12` (configuration not stated), the TGI rises from 27 µM to greater than 100 µM.

Going from `CSC(C1c2ccccc2N(c2ccc(C)cc2)C2=NC(=O)N(C)C(=O)C21Cl)S(=O)(=O)c1ccc(C)cc1` (configuration not stated) to `O/N=C/C1c2ccccc2-c2ccccc21`, the TGI falls from greater than 100 µM to 34.9 µM.

Compared with `CC(=O)CNC(=O)OC(C)(C)C`, `CCOC(=O)[C]1([Bi]([CH3])[CH3])N=NC(C(=O)OC)=C1C(=O)OC` (configuration not stated) is lower in TGI: greater than 100 µM for the first, 32.1 µM for the second.

Compound `COC(=O)CN1CCSC1=NC#N` has a TGI greater than 100 µM.

`CCOC(=O)[C]1([Bi]([CH3])[CH3])N=NC(C(=O)OC)=C1C(=O)OC` (configuration not stated) showed a GI50 of 17.3 µM.

test system: U251 CNS; assay: NCI anticancer screen, dose series, 48 h

Going from `O=C1C2c3[nH]c4ccccc4c3C3CCCCCCC3C2C(=O)N1c1ccccc1` (configuration not stated) to `O=C(O)C(CS)N=c1c2ccccc2n(O)c2ccccc12` (configuration not stated), the TGI rises from 14.9 µM to greater than 100 µM.

`CSC(C1c2ccccc2N(c2ccc(C)cc2)C2=NC(=O)N(C)C(=O)C21Cl)S(=O)(=O)c1ccc(C)cc1` (configuration not stated) and `O/N=C/C1c2ccccc2-c2ccccc21` are within 1.5-fold of each other in TGI: 38.9 µM for the first, 44 µM for the second.

`CC(=O)CNC(=O)OC(C)(C)C` and `CCOC(=O)[C]1([Bi]([CH3])[CH3])N=NC(C(=O)OC)=C1C(=O)OC` (configuration not stated) cannot be ordered by TGI: greater than 100 µM for the first, greater than 100 µM for the second.

Work on `COC(=O)CN1CCSC1=NC#N` yielded a TGI greater than 100 µM.

In the case of `CCOC(=O)[C]1([Bi]([CH3])[CH3])N=NC(C(=O)OC)=C1C(=O)OC` (configuration not stated), the GI50 is reported as greater than 100 µM.

test system: UACC-257 melanoma; assay: NCI anticancer screen, dose series, 48 h

First: CSC(C1c2ccccc2N(c2ccc(C)cc2)C2=NC(=O)N(C)C(=O)C21Cl)S(=O)(=O)c1ccc(C)cc1 (configuration not stated)
Second: O/N=C/C1c2ccccc2-c2ccccc21
The TGI of the first is 1.7-fold higher: 57.2 µM for the first, 34 µM for the second.

`O=C(O)C(CS)N=c1c2ccccc2n(O)c2ccccc12` (configuration not stated) and `CC(=O)CNC(=O)OC(C)(C)C` cannot be ordered by TGI: greater than 100 µM for the first, greater than 100 µM for the second.

test system: UACC-62 melanoma; assay: NCI anticancer screen, dose series, 48 h

`O=C1C2c3[nH]c4ccccc4c3C3CCCCCCC3C2C(=O)N1c1ccccc1` (configuration not stated) and `O=C(O)C(CS)N=c1c2ccccc2n(O)c2ccccc12` (configuration not stated) cannot be ordered by TGI: greater than 100 µM for the first, greater than 100 µM for the second.

Compared with `CSC(C1c2ccccc2N(c2ccc(C)cc2)C2=NC(=O)N(C)C(=O)C21Cl)S(=O)(=O)c1ccc(C)cc1` (configuration not stated), `O/N=C/C1c2ccccc2-c2ccccc21` is 1.7-fold lower in TGI: 52 µM for the first, 30.2 µM for the second.

First: CC(=O)CNC(=O)OC(C)(C)C
Second: CCOC(=O)[C]1([Bi]([CH3])[CH3])N=NC(C(=O)OC)=C1C(=O)OC (configuration not stated)
The TGI of the first is higher: greater than 100 µM for the first, 34.4 µM for the second.

Compound `COC(=O)CN1CCSC1=NC#N` has a TGI greater than 100 µM.

Compound `CCOC(=O)[C]1([Bi]([CH3])[CH3])N=NC(C(=O)OC)=C1C(=O)OC` (configuration not stated) has a GI50 of 19.5 µM.

test system: UO-31 renal; assay: NCI anticancer screen, dose series, 48 h

Compared with `CSC(C1c2ccccc2N(c2ccc(C)cc2)C2=NC(=O)N(C)C(=O)C21Cl)S(=O)(=O)c1ccc(C)cc1` (configuration not stated), `O/N=C/C1c2ccccc2-c2ccccc21` is 2.2-fold lower in TGI: 69.9 µM for the first, 32.4 µM for the second.

`O=C(O)C(CS)N=c1c2ccccc2n(O)c2ccccc12` (configuration not stated) and `COC(=O)CN1CCSC1=NC#N` cannot be ordered by TGI: greater than 100 µM for the first, greater than 100 µM for the second.

Compared with `CC(=O)CNC(=O)OC(C)(C)C`, `CCOC(=O)[C]1([Bi]([CH3])[CH3])N=NC(C(=O)OC)=C1C(=O)OC` (configuration not stated) is lower in TGI: greater than 100 µM for the first, 34.5 µM for the second.

`CCOC(=O)[C]1([Bi]([CH3])[CH3])N=NC(C(=O)OC)=C1C(=O)OC` (configuration not stated) showed a GI50 of 20.3 µM.

test system: XF 498 CNS; assay: NCI anticancer screen, dose series, 48 h

Going from `O=C1C2c3[nH]c4ccccc4c3C3CCCCCCC3C2C(=O)N1c1ccccc1` (configuration not stated) to `CSC(C1c2ccccc2N(c2ccc(C)cc2)C2=NC(=O)N(C)C(=O)C21Cl)S(=O)(=O)c1ccc(C)cc1` (configuration not stated), the TGI rises from 10.7 µM to 65.2 µM (6.1-fold).

`CC(=O)CNC(=O)OC(C)(C)C` was tested, and the TGI was greater than 100 µM.
